# Laboratory results as given in patent US20120094384A1, “USE OF COMPOUNDS FOR DIFFERENTIATION OF CELLS” (priority 2009, published 2012).
# Test system: mouse embryonic stem cells (mESC's)
# Assay: Mouse embryonic stem cell differentiation assessed by GeneChip array (Affymetrix GeneChip Mouse Exon 1.0ST)
# Assay type: cell-based
# Conditions: 0.5 μM, 96 hours, spontaneously differentiating mESC's
# Protocol: Undifferentiated mouse embryonic stem cells (mESC's) were seeded at a density of 1.3×10^6 cells on 6 cm uncoated bacterial grade dishes. Spontaneous differentiation was initiated by removal of LIF from the new incubation medium, which consisted of 2% serum KO DMEM+/−AO-1-530 (0.5 μM). AO-1-530 is the same compound used in Examples 1 and 2. There were three treated and three control replicates.
# Cells were incubated on a shaking platform at 37° C. for 24 hours at which time the plating media was removed and fresh medium, or AO-1-530 treated medium added as appropriate. This was repeated at 48 hours and 72 hours.
# The partially-differentiated cells or embryoid bodies (EB's) were harvested at 96 hours, washed with PBS, re-suspended in Trizol and stored at −80° C. awaiting RNA extraction. The cells were subsequently thawed and RNA extracted using a standard Trizol isolation procedure with an additional clean-up performed using a Qiagen RNeasy Mini kit and DNase digestion as per the manufacturer's instructions. cRNA was prepared from the tRNA, then hybridised to the Affymetrix GeneChip Mouse Exon 1.0ST array, washed, stained then scanned.
# P-value cut-off: 0.05 P-value computation: Asymptotic Multiple testing correction: Benjamini-Hochberg
compound,measurement,setting,value
CCCCCCCCCCc1ccc2c(=O)c(O)c(-c3cc(O)c(O)c(O)c3)oc2c1 [AO1530],Neurod1 and Fgf4 genes relative to the control cells,,increase
same,"remaining 6 genes (Fgf10, Bry, Podxl, Map4k1, Pak1, Eomes) relative to the control cells",,decreased
same,number of genes with significantly altered (P<0.05) expression compared with the controls,"T-test, Benjamini-Hochberg",315 genes
same,[Drug] (normalized) Pak1,[Control] (normalized) 0.17034023,−0.2141
same,[Drug] (normalized) Bry,[Control] (normalized) 0.32084307,−0.4595
same,[Drug] (normalized) Podxl,[Control] (normalized) 0.32956442,−0.3278
same,[Drug] (normalized) Eomes,[Control] (normalized) 0.44043383,−0.5036
same,[Drug] (normalized) Fgf10,[Control] (normalized) 0.50325745,−0.5713
same,[Drug] (normalized) Map4k1,[Control] (normalized) −0.1732769,0.1637
same,[Drug] (normalized) Neurod1,[Control] (normalized) −0.46519312,0.4739
same,[Drug] (normalized) Fgf4,[Control] (normalized) −0.48913416,0.3787
same,[Drug](raw) Fgf10,[Control](raw) 394.5062,187.7
same,[Drug](raw) Neurod1,[Control](raw) 420.62076,806
same,[Drug](raw) Map4k1,[Control](raw) 814.98,1029.3136
same,[Drug](raw) Eomes,[Control](raw) 2057.381,1071.638
same,[Drug](raw) Fgf4,[Control](raw) 2079.3152,3787.6875
same,[Drug](raw) Pak1,[Control](raw) 2240.5337,1717.2704
same,[Drug](raw) Podxl,[Control](raw) 3411.1348,2162.7986
same,[Drug](raw) Bry,[Control](raw) 8229.497,4804.9707
